# Measurements taken from patent US9532993B2, “Aprepitant L-proline solvates—compositions and cocrystals” (priority 2011, dated 2017).
# Assays:
# [1] = for weight loss during the initial desorption cycle: initial desorption scan 50-0.5% RH; for solid form of the product obtained after the GVS analysis (XRPD): XRPD after completion of the GVS isotherm
# Protocol: Gravimetric Vapour Isotherm (GVS) Analysis: Sorption isotherms were obtained using a Hiden Isochema moisture sorption analyser (model IGAsorp), controlled by IGAsorp Systems Software V6.50.48. The sample was maintained at a constant temperature (25° C.) by the instrument controls. The humidity was controlled by mixing streams of dry and wet nitrogen, with a total flow of 250 ml·min^−1. The instrument was verified for relative humidity content by measuring three calibrated Rotronic salt solutions (10-50-80%). The weight change of the sample was monitored as a function of humidity by a microbalance (accuracy +/−0.005 mg). A defined amount of sample was placed in a tared mesh stainless steel basket under ambient conditions. The sample was loaded at 40% RH and 25° C. (typical room conditions). The sample was initially held at 50% RH for ˜80 minutes before the initial desorption cycle was commenced. A moisture sorption isotherm was acquired as outlined in Table 1 (2 scans giving 1 complete cycle). The standard isotherm was collected at a constant temperature (25° C.) and at 10% RH intervals over a 0.5-90% range (80 minutes for each humidity level). Data analysis was undertaken in Microsoft Excel.
# The sample was recovered after completion of the isotherm and re-analysed by XRPD.
# [2] = marketed nanoparticulate formulation; cited from earlier work
# [3] = Class IV indicates low solubility and low permeability API; cited from earlier work
# [4] = cited from earlier work
"weight loss during the initial desorption cycle ([1]; GVS, 25° C.) [%]","hygroscopicity of the obtained product ([1]; GVS, 25° C., product obtained after initial desorption)","water adsorbed by the obtained product at high relative humidity ([1]; GVS, 25° C., product obtained after initial desorption (converted to H2O cocrystal), high relative humidity) [%]","weight loss over the total desorption-adsorption-desorption cycles ([1]; GVS, 25° C., 0.5-90% RH) [%]",SMILES,solid form of the product obtained after the GVS analysis (XRPD) [1],mean absolute bioavailability [2],BCS class [3],solubility in acetonitrile ([4]; acetonitrile),solubility in ethanol ([4]; ethanol),solubility in isopropyl acetate ([4]; isopropyl acetate),solubility in water ([4]; water)
4.3,not hygroscopic,0.5,–,CCO.C[C@@H](O[C@H]1OCCN(Cc2n[nH]c(=O)[nH]2)[C@H]1c1ccc(F)cc1)c1cc(C(F)(F)F)cc(C(F)(F)F)c1.O=C(O)[C@@H]1CCCN1,entirely the 1:1:1 aprepitant L-proline H2O cocrystal,–,–,–,–,–,–
4.4,–,–,6.3,CCCO.C[C@@H](O[C@H]1OCCN(Cc2n[nH]c(=O)[nH]2)[C@H]1c1ccc(F)cc1)c1cc(C(F)(F)F)cc(C(F)(F)F)c1.O=C(O)[C@@H]1CCCN1,entirely the 1:1:1 aprepitant L-proline H2O cocrystal,–,–,–,–,–,–
–,–,–,–,C[C@@H](O[C@H]1OCCN(Cc2nc(=O)[nH][nH]2)[C@H]1c1ccc(F)cc1)c1cc(C(F)(F)F)cc(C(F)(F)F)c1 [Aprepitant],–,60-65%,Class IV,slightly soluble,sparingly soluble,sparingly soluble,practically insoluble
